Assay [1] addresses T1, cyclin D1/cdk 4 enzyme (Homo sapiens, UniProt P11802).
T1 construct: made in house; host or cells: Sf9 insect cells, recombinant baculovirus
The experiment in a line: CDK4 ELISA kinase assay (phospho-Rb ser 795 detection). The assay is classed as biochemical. An outline of the steps:
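ELISA format: plate-bound GST-Rb, 200 μM ATP, Sf9 cyclin/CDK enzyme, 1 h at 30° C; then anti-pRb Ser795 primary overnight at 4° C, HRP secondary, TMB. IC50 after no-substrate background subtraction.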
(In general: An ELISA detects its analyte on a solid surface through an enzyme-linked reagent.)

The target of assay [2] is T2, cyclin B/CDK1 enzyme (Homo sapiens, UniProt P06493).
T2 construct: purchased New England BioLabs; host or cells: Sf9 insect cells, recombinant baculovirus
T2 sequence (P06493 whole entry): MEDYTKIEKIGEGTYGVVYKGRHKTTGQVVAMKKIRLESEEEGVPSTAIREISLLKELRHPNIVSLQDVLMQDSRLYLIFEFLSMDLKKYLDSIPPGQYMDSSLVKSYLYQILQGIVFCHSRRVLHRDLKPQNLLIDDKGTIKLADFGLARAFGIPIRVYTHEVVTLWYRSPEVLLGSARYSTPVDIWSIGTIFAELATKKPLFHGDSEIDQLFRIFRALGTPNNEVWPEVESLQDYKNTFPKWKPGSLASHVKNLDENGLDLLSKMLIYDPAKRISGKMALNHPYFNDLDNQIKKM
T2 sequence (P14635 whole entry partner): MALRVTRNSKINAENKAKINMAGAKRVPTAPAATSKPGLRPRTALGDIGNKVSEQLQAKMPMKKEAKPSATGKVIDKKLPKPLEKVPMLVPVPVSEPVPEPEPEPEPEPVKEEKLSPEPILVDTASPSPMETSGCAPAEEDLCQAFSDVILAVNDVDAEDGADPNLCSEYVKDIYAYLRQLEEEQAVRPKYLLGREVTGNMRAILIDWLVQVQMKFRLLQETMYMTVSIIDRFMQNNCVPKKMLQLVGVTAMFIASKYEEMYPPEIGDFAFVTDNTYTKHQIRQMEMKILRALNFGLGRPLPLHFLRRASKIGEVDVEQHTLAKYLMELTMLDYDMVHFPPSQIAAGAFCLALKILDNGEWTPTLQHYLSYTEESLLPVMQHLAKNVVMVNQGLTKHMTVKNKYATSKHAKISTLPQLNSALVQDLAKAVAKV
The experiment in a line: CDK1 ELISA kinase assay (phospho-Rb ser 795 detection). The assay is classed as biochemical. The protocol:
• 1. High-binding ELISA microtiter plates (Costar) were coated with 40 μl of the kinase substrate (GST fusion of C-terminal fragment of the retinoblastoma susceptibility gene product) diluted to 10 μg/ml in tris-buffered saline (TBS), overnight at 4° C. • 2. Non-specific binding sites were blocked for 1 hour at 4° C. with Superblock in TBS (Pierce), and the plates rinsed with water. • 3. For the screen, 1.5 μl of test compound (200 μg/ml stock in 20% DMSO/20 mM HEPES, pH 7.5) was added to each well. Final dose of the test compound in the assay was 10 ug/ml. […] The kinase reaction (30 μl) was dispensed into each well. Reactions contained 200 μM ATP, 0.5 mg/ml bovine serum albumin (BSA; Sigma), and 0.5 μl partially purified cyclin D1/cdk 4 enzyme*. The enzyme complex is expressed in insect cells (Sf9) infected with recombinant baculovirus and partially purified using ammonium sulfate fractionation. Reaction volumes were adjusted to 30 μl with kinase assay buffer (50 mM HEPES, pH 7.5, 10 mM MgCl2, 5% glycerol, 10 mM 2-mercaptoethanol). • *: For CDK2 assay, 1.0 μl cyclin E/CDK2 enzyme (diluted 1:1000 in kinase assay buffer) was used. The enzyme is isolated from insect cells (Sf9) infected with recombinant baculovirus and partially purified using ammonium sulfate fractionation. For CDK1 assay, 0.08 μl cyclin B/CDK1 enzyme [New England BioLabs; the enzyme is isolated from insect cells (Sf9) infected with recombinant baculovirus carrying human cdc 2 and human cyclin B] was used.
[…] • 5. Plates were incubated at 30° C. for 1 hour. • 6. The reaction mixture was removed by aspiration and replaced with 250 μl TBS containing 0.1% Tween-20 and 5% nonfat dry milk (blocking buffer). The plates were incubated at 4° C. for 1 hour. • 7. The blocking buffer was removed and replaced with 50 μl of the primary antibody [anti-phospho-Rb ser 795 (New England BioLabs) diluted 1:1000 in blocking buffer]. Incubation was at 4° C. for 16-20 hours. • 8. The wells were rinsed 3 times with 250 μl of TBS containing 0.1% Tween-20 followed by the addition of 50 μl of secondary antibody [anti-rabbit IgG conjugated to horseradish peroxidase (Amersham Life Science) diluted 1:1000 in blocking buffer]. • 9. After a 1 hour incubation at room temperature, the wells were rinsed 3 times with 250 μl of TBS/0.1% Tween 20. • 10. TMB (3,3′,5,5′-tetramethylbenzidine dihydrochloride) substrate solution (100 μl; Pierce) was added to each well and the color development reaction allowed to proceed 5-10 minutes at room temperature with shaking. The reaction was stopped by the addition of 2N sulfuric acid (100 μl) and the absorbance values read at 450 nm in a microplate reader (Molecular Devices). Analysis of Results: • 1. The percentage of the absorbance value in wells containing the test compound relative to control wells (no test agent) was determined. • 2. IC50 values of selected compounds were determined from inhibition curves, after subtracting background values (no substrate).

The test system of assay [3] is BT474. In words: Cytotoxicity assay (SRB), BT474. To be noted: read-out: In Vitro Cellular Activity IC50 BT474. The assay is classed as cell-based. An outline of the steps: (§1)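 Protein staining with sulforhodamine B after cold TCA fixation served as the survival endpoint (A540, relative to untreated cells). Before staining, cells were incubated with compound at 37 °C, 7% CO2 for 3 days, or 6 days for BT474.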

Assay [4] concerns HCT-116. The experiment in a line: Cytotoxicity assay (SRB), HCT-116. The following applies: read-out: In Vitro Cellular Activity IC50 HCT116. In kind it is cell-based. An outline of the steps: as §1
The test system of assay [5] is LoVo. In words: Cytotoxicity assay (SRB), LoVo. In kind it is cell-based. The following applies: read-out: In Vitro Cellular Activity IC50 LOVO. An outline of the steps: as §1
The test system of assay [6] is MCF-7. The experiment in a line: Cytotoxicity assay (SRB), MCF-7. To be noted: read-out: In Vitro Cellular Activity IC50 MCF-7. In kind it is cell-based. An outline of the steps: as §1
[7] abbreviates: In Vitro Enzyme Assay, cyclin D1/cdk 4, read-out: CDK4 IC50.
The mark [8] stands for this setting: In Vitro Enzyme Assay, cyclin B/CDK1, read-out: CDK1 IC50.
The mark [9] stands for this setting: Homo sapiens, BT-474, 144 h, BT474 cells, 6 days, SRB.
Where [10] appears, read: Homo sapiens, HCT-116, 72 h, HCT116 cells, 3 days, SRB.
Where [11] appears, read: Homo sapiens, LoVo, 72 h, LoVo cells, 3 days, SRB.
The mark [12] stands for this setting: Homo sapiens, MCF7, 72 h, MCF-7 cells, 3 days, SRB.
Setting [13] is: In Vitro Enzyme Assays, read-out: CDK1 IC50.
Where [14] appears, read: Homo sapiens, BT-474, 144 h, BT474 cells, SRB, 6 days.
Where [15] appears, read: Homo sapiens, HCT-116, 72 h, HCT116 cells, SRB, three days.
[16] abbreviates: Homo sapiens, LoVo, 72 h, LoVo cells, SRB, three days.
[17] abbreviates: Homo sapiens, MCF7, 72 h, MCF-7 cells, SRB, three days.
[18] abbreviates: In Vitro Enzyme Assays, 200 μM ATP, read-out: CDK4 IC50.

pIC50: −log10 of the molar value. Like-named read-outs stand apart in the source and are kept apart here.

T1 sequence (P11802 whole entry, species assumed): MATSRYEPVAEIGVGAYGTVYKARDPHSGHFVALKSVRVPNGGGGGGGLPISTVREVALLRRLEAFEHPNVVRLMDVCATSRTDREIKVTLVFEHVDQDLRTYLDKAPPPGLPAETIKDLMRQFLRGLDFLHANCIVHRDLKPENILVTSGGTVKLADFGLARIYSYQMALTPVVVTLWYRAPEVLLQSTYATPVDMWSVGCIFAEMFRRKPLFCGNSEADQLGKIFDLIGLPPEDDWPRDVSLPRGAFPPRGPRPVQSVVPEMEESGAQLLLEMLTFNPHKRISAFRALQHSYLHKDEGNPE
T1 sequence (P24385 whole entry partner, species assumed): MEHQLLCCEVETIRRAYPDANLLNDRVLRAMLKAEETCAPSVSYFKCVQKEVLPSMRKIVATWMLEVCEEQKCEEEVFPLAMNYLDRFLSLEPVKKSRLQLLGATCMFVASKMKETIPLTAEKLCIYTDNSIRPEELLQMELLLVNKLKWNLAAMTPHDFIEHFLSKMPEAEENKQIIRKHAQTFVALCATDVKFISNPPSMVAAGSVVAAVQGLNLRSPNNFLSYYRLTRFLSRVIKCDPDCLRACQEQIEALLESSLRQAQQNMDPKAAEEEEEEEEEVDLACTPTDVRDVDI

Usually pIC50 stands for the negative decadic logarithm of the IC50, by convention in mol/L. As to `COc1ccc(CNC=C2C(=O)NC(=O)c3ccc(-c4ccc5ccccc5c4)cc32)cc1O` [Example 834, 4-[(3-Hydroxy-4-methoxy-benzylamino)-methylene]-6-naphthalen-2-yl-4H-isoquinoline-1,3-dione], the pIC50 in assay [1] (setting [7]) was 6.54; in assay [2] (setting [8]) it was less than 4.30; in assay [3] (setting [9]), 4.88; in assay [4] (setting [10]) it was 4.53; in assay [5] (setting [11]), 4.64; in assay [6] (setting [12]), 4.73.

Take `O=C1NC(=O)c2ccc(I)cc2/C1=C/NCc1ccn(-c2ccccc2)c(=O)c1` [Example 518, (4Z)-6-Iodo-4-({[(2-oxo-1-phenyl-1,2-dihydropyridin-4-yl)methyl]amino}methylene)isoquinoline-1,3(2H,4H)-dione]: the pIC50 in assay [1] (setting [7]) was 6.96; in assay [2] (setting [8]), less than 4.30; in assay [3] (BT474 cells, 6 days, SRB), 7.10; in assay [4] (HCT116 cells, 3 days, SRB), 6.64; in assay [5] (LoVo cells, 3 days, SRB), 6.82; in assay [6] (MCF-7 cells, 3 days, SRB), 6.19.

With `O=C1NC(=O)c2ccc([N+](=O)[O-])cc2/C1=C/Nc1ccc(CN2CCCCC2)cc1` [compound 42], the pIC50 in assay [2] (setting [13]) is less than 4.30; in assay [3] (setting [14]) it was 5.40; in assay [4] (setting [15]), 5.52; in assay [5] (setting [16]) it was 5.23; in assay [6] (setting [17]), 5.12.

On to `CN1CCN(c2ccc(NC=C3C(=O)NC(=O)c4ccc(-c5ccccc5)cc43)cc2)CC1` [Example 831, 4-{[4-(4-Methyl-piperazin-1-yl)-phenylamino]-methylene}-6-phenyl-4H-isoquinoline-1,3-dione], for which the pIC50 is 6.72 in assay [1] (setting [7]), less than 4.30 in assay [2] (setting [8]), 5.49 in assay [3] (setting [9]) and 5.55 in assay [5] (setting [11]).

`Cc1cccc(-c2ccc3c(c2)C(=CNCc2ccc(O)c(O)c2)C(=O)NC3=O)c1` [Example 782, 4-[(3,4-Dihydroxy-benzylamino)-methylene]-6-m-tolyl-4H-isoquinoline-1,3-dione]: the pIC50 in assay [1] (setting [7]) is 5.67; in assay [2] (setting [8]), less than 4.30; in assay [3] (setting [9]) it was 4.69; in assay [4] (setting [10]), 4.80; in assay [5] (setting [11]) it was 4.80; in assay [6] (setting [12]) it was 4.84.

In the case of `C[C@@H]1CN(c2ccc(N/C=C3\C(=O)NC(=O)c4ccc(I)cc43)cc2)C[C@H](C)N1` [Example 216, (4Z)-4-({[4-(3,5-Dimethylpiperazin-1-yl)phenyl]amino}methylene)-6-iodoisoquinoline-1,3(2H,4H)-dione], the values for the pIC50 in assay [2] (setting [13]), in assay [3] (setting [14]) and in assay [5] (setting [16]) were less than 4.30, 5.96 and 5.89, respectively.

Turning to `O=C1NC(=O)c2ccc(-c3ccc(Cl)cc3)cc2/C1=C/Nc1ccc(CN2CCCCC2)cc1` [Example 111, (4Z)-6-(4-Chlorophenyl)-4-({[4-(piperidin-1-ylmethyl)phenyl]amino}methylene)isoquinoline-1,3(2H,4H)-dione], the pIC50 was 4.71 in assay [1] (setting [18]); less than 4.30 in assay [2] (setting [13]); 5.55 in assay [3] (setting [14]); 5.92 in assay [4] (setting [15]); 5.92 in assay [5] (setting [16]); 5.68 in assay [6] (setting [17]).

In the case of `CC1CN(c2ccc(N/C=C3\C(=O)NC(=O)c4ccc(I)cc43)cc2)CCN1C` (stereo not shown) [Example 248, (4Z)-4-({[4-(3,4-Dimethylpiperazin-1-yl)phenyl]amino}methylene)-6-iodoisoquinoline-1,3(2H,4H)-dione], the pIC50 in assay [1] (setting [18]) is 5.57; in assay [2] (setting [13]), less than 4.30; in assay [3] (setting [14]) it was 5.52; in assay [5] (setting [16]), 5.55.

In the case of `C=CCOc1ccc(CN/C=C2\C(=O)NC(=O)c3ccc(Br)cc32)cc1O` [Example 149, (4Z)-4-({[4-(Allyloxy)-3-hydroxybenzyl]amino}methylene)-6-bromoisoquinoline-1,3(2H,4H)-dione], the pIC50 in assay [1] (setting [18]) was 6.48; in assay [2] (setting [13]), less than 4.30; in assay [3] (setting [14]), 4.92; in assay [4] (setting [15]) it was 4.74; in assay [5] (setting [16]), 4.57; in assay [6] (setting [17]), less than 4.30.

In the case of `CN1CCN(c2ccc(N/C=C3\C(=O)NC(=O)c4ccc(-n5cccc5)cc43)cc2)CC1` [compound 60], the pIC50 in assay [2] (setting [13]) was less than 4.30; in assay [3] (Homo sapiens, BT-474, 144 h), 5.70; in assay [4] (Homo sapiens, HCT-116, 72 h) it was 5.82; in assay [5] (Homo sapiens, LoVo, 72 h), 5.70; in assay [6] (Homo sapiens, MCF7, 72 h), 5.64.

On to `CN1CCN(c2ccc(NC=C3C(=O)NC(=O)c4ccc(-c5ccco5)cc43)cc2)CC1` [Example 830, 6-Furan-2-yl-4-{[4-(4-methyl-piperazin-1-yl)-phenylamino]-methylene}-4H-isoquinoline-1,3-dione], for which the pIC50 in assay [1] (setting [7]) is 6.77; in assay [2] (setting [8]) it was less than 4.30; in assay [3] (setting [9]), 5.92; in assay [4] (setting [10]) it was 5.57; in assay [5] (setting [11]), 5.44; in assay [6] (setting [12]), 5.48.

For `O=C1NC(=O)c2ccc(N3CCCCC3)cc2/C1=C/Nc1ccc(CN2CCCCC2)cc1` [Example 118, (4Z)-6-Piperidin-1-yl-4-({[4-(piperidin-1-ylmethyl)phenyl]amino}methylene)isoquinoline-1,3(2H,4H)-dione], the pIC50 in assay [2] (setting [13]) was less than 4.30; in assay [3] (setting [14]), 5.40; in assay [4] (setting [15]), 5.57; in assay [5] (setting [16]), 5.49; in assay [6] (setting [17]), 5.36.

Take `COc1ccc(-c2ccc3c(c2)/C(=C/Nc2ccc(CN4CCCCC4)cc2)C(=O)NC3=O)cc1` [Example 116, (4Z)-6-(4-Methoxyphenyl)-4-({[4-(piperidin-1-ylmethyl)phenyl]amino}methylene)-isoquinoline-1,3(2H,4H)-dione]: the pIC50 is less than 4.30 in assay [2] (setting [13]); 5.55 in assay [3] (setting [14]); 5.89 in assay [4] (setting [15]); 5.55 in assay [5] (setting [16]); 5.49 in assay [6] (setting [17]).
